Measurements taken from patent US9199946B2, “Pyrimidinone carboxamide inhibitors of endothelial lipase” (BRISTOL-MYERS SQUIBB COMPANY, priority 2012, dated 2015).
Read-outs that look alike come from different tables or passages of the source.

Target: T1, Endothelial lipase (EL) (Homo sapiens, UniProt Q9Y5X9)
T1 construct: HT-1080 cells, which were transformed by RAGE technology (Athersys) to overexpress endogenous EL; endogenous in cells; conditioned medium used as the enzyme source
T1 sequence (Q9Y5X9 21-500): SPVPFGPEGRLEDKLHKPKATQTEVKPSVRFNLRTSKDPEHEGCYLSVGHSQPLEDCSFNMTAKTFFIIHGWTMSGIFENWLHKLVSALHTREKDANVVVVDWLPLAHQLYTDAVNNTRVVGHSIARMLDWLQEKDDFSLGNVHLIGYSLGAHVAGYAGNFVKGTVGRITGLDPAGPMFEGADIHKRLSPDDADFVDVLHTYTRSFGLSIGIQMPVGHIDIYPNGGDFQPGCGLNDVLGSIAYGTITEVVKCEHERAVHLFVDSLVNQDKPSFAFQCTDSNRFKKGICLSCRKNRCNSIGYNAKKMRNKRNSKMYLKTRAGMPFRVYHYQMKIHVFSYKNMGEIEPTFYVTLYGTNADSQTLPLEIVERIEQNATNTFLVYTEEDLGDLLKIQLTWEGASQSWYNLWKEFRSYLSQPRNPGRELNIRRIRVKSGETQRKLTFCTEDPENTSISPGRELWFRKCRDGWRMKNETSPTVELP
Test: Endothelial lipase (EL) enzymatic assay with fluorescent substrate A10070 in DMPG vesicles
Assay type: biochemical
Procedure, shortened: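 The enzyme source was conditioned medium from HT-1080 cells engineered to overexpress endogenous EL. It was preincubated with compound for 20 min at 37 °C in 50 mM HEPES pH 8.0, 50 mM NaCl, 1 mM CaCl2. Reactions started with DMPG vesicles carrying FRET substrate A10070 (mole fraction 0.05). The rate was taken from the linear slope of fluorescence (ex 488/em 530 nm) over 10 min.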

[1] = range observed in the EL assay, read-out: EL IC50 values
[2] = conditioned media from HT-1080 cells overexpressing endogenous EL, 20 min preincubation at 37° C., read-out: EL IC50

IC50 [1] [µM] | IC50 [2] [µM] | Structure (SMILES)
≤ 10 | – | O=C(N[C@H]1CC[C@@H](c2ccccc2)CC1)c1[nH]c(=O)[nH]c(=O)c1NCCCc1ccccc1 [Example 207, 2,6-dioxo-N-(cis-4-phenylcyclohexyl)-5-(3-phenylpropylamino)-1,2,3,6-tetrahydropyrimidine-4-carboxamide]
≤ 10 | – | COc1ccc(C2CCC(NC(=O)c3[nH]c(=O)[nH]c(=O)c3N)C2)cc1 (stereo not drawn) [Example 107, 5-amino-N-(3-(4-methoxyphenyl)cyclopentyl)-2,6-dioxo-1,2,3,6-tetrahydropyrimidine-4-carboxamide]
≤ 10 | – | Nc1c(C(=O)N[C@@H]2CCCc3cc(OCC(F)(F)F)ccc32)[nH]c(=O)[nH]c1=O [Example 33, (R)-5-amino-2,6-dioxo-N-(6-(2,2,2-trifluoroethoxy)-1,2,3,4-tetrahydronaphthalen-1-yl)-1,2,3,6-tetrahydropyrimidine-4-carboxamide]
≤ 10 | – | Cn1c(=O)[nH]c(C(=O)N[C@H]2CC[C@@H](c3ccccc3)CC2)c(O)c1=O [Example 242, 5-hydroxy-1-methyl-2,6-dioxo-N-(cis-4-phenylcyclohexyl)-1,2,3,6-tetrahydropyrimidine-4-carboxamide]
≤ 10 | – | Cc1nn(C)c(C)c1-c1ccc([C@@H]2CC[C@H](NC(=O)c3[nH]c(=O)[nH]c(=O)c3N)C2)cc1 [Example 159, 5-amino-2,6-dioxo-N-((1S,3R)-3-(4-(1,3,5-trimethyl-1H-pyrazol-4-yl)phenyl)cyclopentyl)-1,2,3,6-tetrahydropyrimidine-4-carboxamide]
≤ 10 | – | Cn1nc(C(F)(F)F)cc1-c1ccc([C@H]2CC[C@@H](NC(=O)c3[nH]c(=O)[nH]c(=O)c3N)C2)cc1 [Example 173, 5-amino-N-((1R,3S)-3-(4-(1-methyl-3-(trifluoromethyl)-1H-pyrazol-5-yl)phenyl)cyclopentyl)-2,6-dioxo-1,2,3,6-tetrahydropyrimidine-4-carboxamide]
≤ 10 | 1.42 | O=C(O)Cn1c(=O)[nH]c(C(=O)N[C@H]2CC[C@@H](c3ccccc3)CC2)c(O)c1=O [Example 267, 2-(5-Hydroxy-2,6-dioxo-4-((cis-4-phenylcyclohexyl)carbamoyl)-2,3-dihydropyrimidin-1(6H)-yl)acetic acid]
– | 0.525 | Nc1c(C(=O)NC2CCC(c3cccc(OCc4ccccc4)c3)C2)[nH]c(=O)[nH]c1=O (stereo not drawn) [Example 158, 5-amino-N-(3-(3-(benzyloxy)phenyl)cyclopentyl)-2,6-dioxo-1,2,3,6-tetrahydropyrimidine-4-carboxamide]
≤ 10 | – | O=C(N[C@H]1CCCc2c(OCC(F)(F)F)cccc21)c1[nH]c(=O)[nH]c(=O)c1O [Example 246, (S)-5-hydroxy-2,6-dioxo-N-(5-(2,2,2-trifluoroethoxy)-1,2,3,4-tetrahydronaphthalen-1-yl)-1,2,3,6-tetrahydropyrimidine-4-carboxamide]
≤ 10 | 0.01 | O=C(N[C@H]1CCc2ccc(OCc3ccccc3)cc21)c1[nH]c(=O)[nH]c(=O)c1O [Example 259, (S)-N-(6-(benzyloxy)-2,3-dihydro-1H-inden-1-yl)-5-hydroxy-2,6-dioxo-1,2,3,6-tetrahydropyrimidine-4-carboxamide]
≤ 10 | – | Nc1c(C(=O)NC2CCC(c3nc4ccc(-c5ccccc5)cc4s3)C2)[nH]c(=O)[nH]c1=O (stereo not drawn) [Example 144, 5-amino-2,6-dioxo-N-(3-(6-phenylbenzo[d]thiazol-2-yl)cyclopentyl)-1,2,3,6-tetrahydropyrimidine-4-carboxamide]
≤ 10 | – | O=C(N[C@@H]1CC[C@@H](c2ccc(Cl)c(Cl)c2)C1)c1[nH]c(=O)[nH]c(=O)c1O [Example 251, N-((1R,3R)-3-(3,4-dichlorophenyl)cyclopentyl)-5-hydroxy-2,6-dioxo-1,2,3,6-tetrahydropyrimidine-4-carboxamide]
≤ 10 | 7.16 | Nc1c(C(=O)N[C@H]2CCCc3ccc(C(F)(F)F)cc32)[nH]c(=O)[nH]c1=O [Example 54, (S)-5-amino-2,6-dioxo-N-(7-(trifluoromethyl)-1,2,3,4-tetrahydronaphthalen-1-yl)-1,2,3,6-tetrahydropyrimidine-4-carboxamide]
≤ 10 | 3.37 | Nc1c(C(=O)NC2CCCc3c2sc2nc[nH]c(=O)c32)[nH]c(=O)[nH]c1=O (stereo not drawn) [Example 45, 5-amino-2,6-dioxo-N-(4-oxo-1,4,5,6,7,8-hexahydro[1]benzothieno[2,3-d]pyrimidin-8-yl)-1,2,3,6-tetrahydro-4-pyrimidinecarboxamide]
≤ 10 | – | Nc1c(C(=O)N[C@@H]2CCCc3cc(OCc4ccccc4)ccc32)[nH]c(=O)[nH]c1=O [Example 83, (R)-5-amino-N-(6-(benzyloxy)-1,2,3,4-tetrahydronaphthalen-1-yl)-2,6-dioxo-1,2,3,6-tetrahydropyrimidine-4-carboxamide]
≤ 10 | – | Nc1c(C(=O)N[C@H]2CC[C@@H](c3ccccc3)C2)[nH]c(=O)[nH]c1=O [Example 78, 5-amino-2,6-dioxo-N-((1S,3R)-3-phenylcyclopentyl)-1,2,3,6-tetrahydropyrimidine-4-carboxamide]
≤ 10 | – | NC(=O)c1ccc(N2CCC(NC(=O)c3[nH]c(=O)[nH]c(=O)c3N)C2)nc1 (stereo not drawn) [Example 188, 5-amino-N-(1-(5-carbamoylpyridin-2-yl)pyrrolidin-3-yl)-2,6-dioxo-1,2,3,6-tetrahydropyrimidine-4-carboxamide]
≤ 10 | – | CS(=O)(=O)N1CCC(NC(=O)c2[nH]c(=O)[nH]c(=O)c2N)c2ccccc21 (single isomer, unassigned; enantiomer b) [Example 196, 5-amino-N-(1-(methylsulfonyl)-1,2,3,4-tetrahydroquinolin-4-yl)-2,6-dioxo-1,2,3,6-tetrahydropyrimidine-4-carboxamide (Enantiomer B)]
≤ 10 | – | Nc1c(C(=O)NC2CCCc3cc(OCC(F)(F)F)ccc32)[nH]c(=O)[nH]c1=O (stereo not drawn) [Example 22, 5-amino-2,6-dioxo-N-(6-(2,2,2-trifluoroethoxy)-1,2,3,4-tetrahydronaphthalen-1-yl)-1,2,3,6-tetrahydropyrimidine-4-carboxamide]
≤ 10 | – | Nc1c(C(=O)N[C@@H]2CCCc3c(OCc4ccccc4F)cccc32)[nH]c(=O)[nH]c1=O [Example 96, (R)-5-amino-N-(5-(2-fluorobenzyloxy)-1,2,3,4-tetrahydronaphthalen-1-yl)-2,6-dioxo-1,2,3,6-tetrahydropyrimidine-4-carboxamide]
≤ 10 | – | O=C(N[C@H]1CC[C@@H](c2ccccc2)CC1)c1[nH]c(=O)[nH]c(=O)c1O [Example 238, Hydroxy-2,6-dioxo-N-(cis-4-phenylcyclohexyl)-1,2,3,6-tetrahydropyrimidine-4-carboxamide]
≤ 10 | – | Nc1c(C(=O)N[C@@H]2CCCc3cc(C(F)(F)F)ccc32)[nH]c(=O)[nH]c1=O [Example 51, (R)-5-amino-2,6-dioxo-N-(6-(trifluoromethyl)-1,2,3,4-tetrahydronaphthalen-1-yl)-1,2,3,6-tetrahydropyrimidine-4-carboxamide]
≤ 10 | – | CC(C)Cn1c(=O)[nH]c(C(=O)N[C@H]2CC[C@@H](c3ccccc3)CC2)c(O)c1=O [Example 253, 5-hydroxy-1-isobutyl-2,6-dioxo-N-((1s,4s)-4-phenylcyclohexyl)-1,2,3,6-tetrahydropyrimidine-4-carboxamide]
≤ 10 | – | COc1ccc([C@@H]2CC[C@H](NC(=O)c3[nH]c(=O)[nH]c(=O)c3N)C2)cn1 [Example 79, 5-amino-N-((1S,3R)-3-(6-methoxypyridin-3-yl)cyclopentyl)-2,6-dioxo-1,2,3,6-tetrahydropyrimidine-4-carboxamide]
≤ 10 | – | O=C(N[C@@H]1CCCc2c(OCC(F)(F)F)cccc21)c1[nH]c(=O)[nH]c(=O)c1O [Example 255, (R)-5-hydroxy-2,6-dioxo-N-(5-(2,2,2-trifluoroethoxy)-1,2,3,4-tetrahydronaphthalen-1-yl)-1,2,3,6-tetrahydropyrimidine-4-carboxamide]
≤ 10 | – | Nc1c(C(=O)N[C@H]2CC[C@@H](c3ccc(-c4cccc(CO)c4)cc3)C2)[nH]c(=O)[nH]c1=O [Example 178, 5-amino-N-((1S,3R)-3-(3′-(hydroxymethyl)biphenyl-4-yl)cyclopentyl)-2,6-dioxo-1,2,3,6-tetrahydropyrimidine-4-carboxamide]
≤ 10 | – | CC(C)CNc1c(C(=O)N[C@H]2CC[C@@H](c3ccccc3)CC2)[nH]c(=O)[nH]c1=O [Example 206, 5-(isobutylamino)-2,6-dioxo-N-(cis-4-phenylcyclohexyl)-1,2,3,6-tetrahydropyrimidine-4-carboxamide]
≤ 10 | 9.56 | O=C(N[C@H]1CCCc2ccccc21)c1[nH]c(=O)[nH]c(=O)c1OCCO [Example 299, (S)-5-(2-Hydroxyethoxy)-2,6-dioxo-N-(1,2,3,4-tetrahydronaphthalen-1-yl)-1,2,3,6-tetrahydropyrimidine-4-carboxamide]
